Where a name gives a salt, the structure may show the parent alone. Read-outs that look alike come from different tables or passages of the source.

The test system of data set [1] is SUDHL5. The experiment in a line: Induction of cytotoxicity (CellTiter-Glo, 5 h), SUDHL5. The following applies: read-out: Cytotox SUDHL5 [M] (median); SUDHL5 cells, cytotoxicity induction, CellTiter-Glo, 5 h incubation, median.
Data set [2] concerns SUDHL5. The experiment in a line: Induction of caspase-3/7 activity (Caspase-Glo 3/7), SUDHL5. The class given is cell-based. The following applies: caspase-3/7 induction, SUDHL5 cells, 3 h treatment; median. The procedure, abridged:
(§1)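 DLBCL lines SUDHL5 and SUDHL10 treated with compounds for 3 h at 37 °C; caspase-3/7 activity read by Caspase-Glo 3/7 luminescence. Medium-only background subtracted; EC50 fitted with bottom fixed at 1 and top fixed at the reference compound's maximal induction.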

For another data set, the system named is MV-4-11. The experiment in a line: Anti-proliferative effect (CellTiter-Glo, 72 h), MV-4-11. Particulars: MV-4-11 cells, median, read-out: IC50 antiproliferation assay MV-4-11 [M] (median). The format is cell-based. The method in brief:
(§2)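 72 h compound treatment, 37 °C humidified; CellTiter-Glo added, 10 min incubation, luminescence read; day 0 plate read in parallel for baseline.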

In data set [3] the test system is SUDHL10. The data set is described as follows: Induction of cytotoxicity (CellTiter-Glo, 5 h), SUDHL10.
The test system of data set [4] is SUDHL5. The experiment in a line: Anti-proliferative effect (CellTiter-Glo, 72 h), SUDHL5. The class given is cell-based. Particulars: SUDHL5 cells, antiproliferation, 72 h incubation, median, read-out: Antiproli SUDHL5 [M] (median). The method in brief:
as §2

Another data set concerns the target MCL-1 (Homo sapiens, UniProt Q07820). The data set is described as follows: Protein-protein interaction assay MCL-1/Noxa BH3 peptide (MCL-1 assay), TR-FRET. The class given is binding. Particulars: MBP-MCL-1 / Noxa BH3-derived peptide, median. The method in brief: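 IC50 came from a 4-parameter fit of the normalized 665/620 nm TR-FRET ratio (anti-MBP Eu-cryptate/streptavidin-XL665). Compounds (0.1 nM–20 μM, duplicates) were preincubated 10 min at 22 °C with 1 nM MBP-MCL-1 in pH 7 Tris/NaCl/KF buffer, then read after 1 h at 22 °C plus overnight at 4 °C.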

The next data set deals with A2780. The data set is described as follows: Anti-proliferative effect (CellTiter-Glo, 72 h), A2780. The format is cell-based. The following applies: A2780 cells, median, read-out: IC50 antiproliferation assay A2780 [M] (median). The method in brief: as §2
Data set [5] concerns SUDHL10. The experiment in a line: Induction of caspase-3/7 activity (Caspase-Glo 3/7), SUDHL10. The class given is cell-based. Particulars: caspase-3/7 induction, SUDHL10 cells, 3 h treatment, median. The procedure, abridged: as §1
[6] abbreviates: Homo sapiens, SU-DHL10, 5 h, read-out: Cytotox SUDHL10 [M] (median), SUDHL10 cells, cytotoxicity induction, CellTiter-Glo, 5 h incubation, median.
Setting [7] is: read-out: Cytotox SUDHL10 [M] (median), SUDHL10 cells, cytotoxicity induction, CellTiter-Glo, 5 h incubation, median.

MCL-1, sequence (Q07820 whole entry): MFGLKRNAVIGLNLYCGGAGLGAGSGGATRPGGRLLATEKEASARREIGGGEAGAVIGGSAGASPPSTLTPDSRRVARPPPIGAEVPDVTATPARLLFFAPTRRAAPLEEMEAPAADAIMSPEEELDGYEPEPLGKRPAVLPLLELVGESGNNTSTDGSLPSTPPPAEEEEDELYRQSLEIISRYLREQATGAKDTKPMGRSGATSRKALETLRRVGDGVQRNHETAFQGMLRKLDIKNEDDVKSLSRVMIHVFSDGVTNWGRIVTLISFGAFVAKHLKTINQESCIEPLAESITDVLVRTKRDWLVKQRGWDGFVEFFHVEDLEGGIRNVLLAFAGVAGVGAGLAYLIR

Take `Cn1nc(CC(F)(F)F)c2c1COCCCCn1c(C(=O)O)c(CCCOc3cccc4ccccc34)c3cccc-2c31` (single isomer, unassigned) [Example 220, 1-methyl-7-[3-(naphthalen-1-yloxy)propyl]-3-(2,2,2-trifluoroethyl)-1,10,11,12,13,15-hexahydropyrazo[4′,3′:9,10][1,6]oxazacycloundecino[8,7,6-hi]indole-8-carboxylic acid-N-ethylethanamine Salt]: the IC50 with SUDHL5 [1] was 9.69e-06 M; in the data set with MV-4-11 (Homo sapiens, MV4-11, 72 h) it was 2.27e-05 M; in the data set with SUDHL10 [3] (setting [6]), over 3.3e-05 M; in the data set with SUDHL5 [4] (Homo sapiens, SU-DHL-5, 72 h), 1.05e-05 M; against MCL-1 it was 0.00323 µM; in the data set on A2780 (Homo sapiens, A2780, 72 h), over 3.3e-05 M. The EC50 in the data set with SUDHL5 [2] is 10.1 µM; with SUDHL10 [5] (Homo sapiens, SU-DHL10, 3 h), 22.4 µM; with SUDHL10 [5] it was over 33 µM.

For the molecule `Cn1nc(CC(F)(F)F)c2c1COCCCCn1c(C(=O)O)c(CCCOc3cccc4ccccc34)c3cccc-2c31` (single isomer, unassigned) [Example 221, 1-methyl-7-[3-(naphthalen-1-yloxy)propyl]-3-(2,2,2-trifluoroethyl)-1,10,11,12,13,15-hexahydropyrazolo[4′,3′:9,10][1,6]oxazacycloundecino[8,7,6-hi]indole-8-carboxylic acid-N-ethylethanamine Salt], the IC50 was over 3.3e-05 M in the data set on SUDHL5 [1]; over 3.3e-05 M with MV-4-11; over 3.3e-05 M with SUDHL10 [3] (setting [7]); 9.75e-06 M in the data set on SUDHL5 [4]; 0.353 µM against MCL-1; 3.28e-05 M in the data set on A2780. The EC50 in the data set on SUDHL5 [2] and in the data set with SUDHL10 [5] was over 33 µM each time.

As for `CN1CCCCn2c(C(=O)O)c(CCCOc3cccc4ccccc34)c3cccc(c32)-c2c(CC(F)(F)F)nn(C)c2C1` (single isomer, unassigned) [Example 223, 1,14-dimethyl-7-[3-(naphthalen-1-yloxy)propyl]-3-(2,2,2-trifluoroethyl)-10,11,12,13,14,15-hexahydro-1H-pyrazolo[3′,4′:8,9][1,6]diazacycloundecino[10,11,1-hi]indole-8-carboxylic Acid], the IC50 in the data set with SUDHL5 [1] was 8.33e-06 M; in the data set with MV-4-11 (Homo sapiens, MV4-11, 72 h), 1.79e-05 M; in the data set on SUDHL10 [3] (setting [6]) it was 2.88e-05 M; in the data set on SUDHL10 [3] (setting [7]) it was over 3.3e-05 M; with SUDHL5 [4] (Homo sapiens, SU-DHL-5, 72 h), 9.92e-06 M; on MCL-1 it was 0.00424 µM. Also, in the data set on A2780, the IC50 is over 3.3e-05 M. The EC50 with SUDHL5 [2] stood at 6.96 µM; in the data set on SUDHL10 [5] (Homo sapiens, SU-DHL10, 3 h), 26.2 µM.

Turning to `CN1CCCCn2c(C(=O)O)c(CCCOc3cccc4ccccc34)c3cccc(c32)-c2c(CC(F)(F)F)nn(C)c2C1` (single isomer, unassigned) [Example 224, 1,14-dimethyl-7-[3-(naphthalen-1-yloxy)propyl]-3-(2,2,2-trifluoroethyl)-10,11,12,13,14,15-hexahydro-1H-pyrazolo[3′,4′:8,9][1,6]diazacycloundecino[10,11,1-hi]indole-8-carboxylic Acid], the IC50 was over 3.3e-05 M in the data set with SUDHL5 [1]; 1.22e-05 M in the data set on MV-4-11; 3.2e-05 M in the data set on SUDHL10 [3] (setting [7]); 6.03e-06 M in the data set with SUDHL5 [4]; 0.395 µM against MCL-1; 1.45e-05 M in the data set on A2780. Besides, the EC50 with SUDHL5 [2] and in the data set with SUDHL10 [5] was over 33 µM each time.

In the case of `CN1CCCCn2c(C(=O)O)c(CCCOc3cccc4ccccc34)c3cccc(c32)-c2c(/C=C/F)nn(C)c2C1` (single isomer, unassigned) [Example 226, 3-[(E)-2-fluoroethenyl]-1,14-dimethyl-7-[3-(naphthalen-1-yloxy)propyl]-10,11,12,13,14,15-hexahydro-1H-pyrazolo[3′,4′:8,9][1,6]diazacycloundecino[10,11,1-hi]indole-8-carboxylic Acid], the IC50 with SUDHL5 [1] is 3.41e-06 M; in the data set with MV-4-11 (Homo sapiens, MV4-11, 72 h), 2.09e-05 M; with SUDHL10 [3] (setting [6]), 3.04e-05 M; in the data set with SUDHL5 [4], 3.15e-06 M; at MCL-1, 0.00302 µM; in the data set with A2780 (Homo sapiens, A2780, 72 h), over 3.3e-05 M. The figures for the EC50 in the data set on SUDHL5 [2] and with SUDHL10 [5] were 3.15 µM and 14.2 µM, respectively.

Regarding `CN1CCCCn2c(C(=O)O)c(CCCOc3cccc4ccccc34)c3cccc(c32)-c2c(/C=C/F)nn(C)c2C1` (single isomer, unassigned) [Example 227, 3-[(E)-2-fluoroethenyl]-1,14-dimethyl-7-[3-(naphthalen-1-yloxy)propyl]-10,11,12,13,14,15-hexahydro-1H-pyrazolo[3′,4′:8,9][1,6]diazacycloundecino[10,11,1-hi]indole-8-carboxylic Acid], the IC50 in the data set with SUDHL5 [1] was over 3.3e-05 M; with MV-4-11, 1.66e-05 M; with SUDHL10 [3] (setting [7]) it was over 3.3e-05 M; with SUDHL5 [4] it was 8.96e-06 M; against MCL-1 it was 0.0909 µM; in the data set with A2780, 1.65e-05 M. The EC50 with SUDHL5 [2] and in the data set with SUDHL10 [5] was over 33 µM in each case.

For `Cn1nc2c(c1OC(F)F)-c1cccc3c(CCCOc4cccc5ccccc45)c(C(=O)O)n(c13)CCCCOC2` (single isomer, unassigned) [Example 235, (−)-3-(difluoromethoxy)-2-methyl-7-[3-(naphthalen-1-yloxy)propyl]-2,10,11,12,13,15-hexahydropyrazolo[4′,3′:9,10][1,6]oxazacycloundecino[8,7,6-hi]indole-8-carboxylic Acid], the IC50 in the data set with SUDHL5 [1] is over 3.3e-05 M; in the data set on MV-4-11 (Homo sapiens, MV4-11, 72 h), 2.07e-05 M; with SUDHL10 [3] (setting [6]) it was over 3.3e-05 M; in the data set on SUDHL5 [4] (Homo sapiens, SU-DHL-5, 72 h), 1.22e-05 M; against MCL-1, 0.0779 µM; with A2780 (Homo sapiens, A2780, 72 h), 1.8e-05 M. For the same molecule, the EC50 in the data set on SUDHL5 [2] is over 33 µM; with SUDHL10 [5] (Homo sapiens, SU-DHL10, 3 h) it was over 33 µM.

Take `Cn1nc2c(c1OC(F)F)-c1cccc3c(CCCOc4cccc5ccccc45)c(C(=O)O)n(c13)CCCCOC2` (single isomer, unassigned) [Example 236, (+)-3-(difluoromethoxy)-2-methyl-7-[3-(naphthalen-1-yloxy)propyl]-2,10,11,12,13,15-hexahydropyrazolo[4′,3′:9,10][1,6]oxazacycloundecino[8,7,6-hi]indole-8-carboxylic Acid]: the IC50 was 1.06e-05 M in the data set with SUDHL5 [1]; 2.19e-05 M in the data set on MV-4-11; 2.52e-05 M in the data set on SUDHL10 [3] (setting [7]); 9.48e-06 M in the data set with SUDHL5 [4]; 0.00678 µM on MCL-1; 2.6e-05 M in the data set on A2780. Besides, the EC50 was found to be 11.2 µM in the data set with SUDHL5 [2] and 25.1 µM in the data set on SUDHL10 [5].

As to `O=C(O)c1c(CCCOc2cccc3ccccc23)c2cccc3c2n1CCCCOCc1nn2c(c1-3)CCCC2` (single isomer, unassigned) [Example 254, 1-[3-(naphthalen-1-yloxy)propyl]-4,5,6,7,12,13,14,15-octahydro-9H-pyrido[1″,2″:1′,5′]pyrazolo[4′,3′:9,10][1,6]oxazacycloundecino[8,7,6-hi]indole-2-carboxylic Acid], the IC50 in the data set with SUDHL5 [1] stood at 3.21e-06 M; with MV-4-11 (Homo sapiens, MV4-11, 72 h), 8.59e-06 M; in the data set with SUDHL10 [3] (setting [7]), 8.11e-06 M; with SUDHL5 [4], 2.32e-06 M; on MCL-1 it was 0.00214 µM; in the data set on A2780 it was 2.25e-05 M. Also, the IC50 in the data set on A2780 (Homo sapiens, A2780, 72 h) is over 3.3e-05 M. For the same molecule, the EC50 in the data set with SUDHL5 [2] turned out to be 3.01 µM; in the data set on SUDHL10 [5], 7.24 µM.

On to `O=C(O)c1c(CCCOc2cccc3ccccc23)c2cccc3c2n1CCCCOCc1nn2c(c1-3)CCCC2` (single isomer, unassigned) [Example 255, 1-[3-(naphthalen-1-yloxy)propyl]-4,5,6,7,12,13,14,15-octahydro-9H-pyrido[1″,2″:1′,5′]pyrazolo[4′,3′:9,10][1,6]oxazacycloundecino[8,7,6-hi]indole-2-carboxylic Acid], for which the IC50 in the data set with SUDHL5 [1] is over 3.3e-05 M; in the data set on MV-4-11, 1.31e-05 M; in the data set with SUDHL10 [3] (setting [7]), 3.28e-05 M; in the data set with SUDHL5 [4], 1.39e-05 M; against MCL-1, 0.067 µM; with A2780 it was 2.48e-05 M. In addition, the EC50 in the data set with SUDHL5 [2] and in the data set on SUDHL10 [5] was over 33 µM in each case.
